Patent US12006330B2, “Substituted macrocyclic compounds and related methods of treatment” (Alkermes, Inc., priority 2020, dated 2024)
pEC50: −log10 of the molar value.

Key:
MDR1 = assay: MDCK-MDR1 permeability assay; assay type: in vitro ADME; conditions: dog, MDCK-MDR1, MDCK-MDR1 cells; for efflux ratio at 2 h, 3 μM: Papp B→A divided by Papp A→B, read-out: Efflux ratio (ER); for Papp A→B at 2 h, 3 μM: test compound 3 μM, 2 hours at 37 degrees C, apical to basolateral
Summary of the method: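 Receiver and donor compartments were analysed by LC-MS/MS after a 2 h incubation at 37 °C of 3 μM compound in HBSS on MDCK-MDR1 monolayers, run in both directions with Lucifer Yellow (100 μM) as integrity marker. Apparent permeability came from translocation rate, insert area and initial concentration; B→A/A→B Papp gave the efflux ratio, alongside percent recovery.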

[1] = molecular target: T1, human orexin-2 receptor (OX2R) (Homo sapiens, UniProt O43614); assay: Human OX2R IP1 assay; assay type: cell-based; conditions: T-Rex CHO cells stably overexpressing human OX2R; IP1 accumulation; 1 hr at 37 degrees C; mean EC50
T1 construct: expressed in transfected cells
T1 sequence (O43614 1-444): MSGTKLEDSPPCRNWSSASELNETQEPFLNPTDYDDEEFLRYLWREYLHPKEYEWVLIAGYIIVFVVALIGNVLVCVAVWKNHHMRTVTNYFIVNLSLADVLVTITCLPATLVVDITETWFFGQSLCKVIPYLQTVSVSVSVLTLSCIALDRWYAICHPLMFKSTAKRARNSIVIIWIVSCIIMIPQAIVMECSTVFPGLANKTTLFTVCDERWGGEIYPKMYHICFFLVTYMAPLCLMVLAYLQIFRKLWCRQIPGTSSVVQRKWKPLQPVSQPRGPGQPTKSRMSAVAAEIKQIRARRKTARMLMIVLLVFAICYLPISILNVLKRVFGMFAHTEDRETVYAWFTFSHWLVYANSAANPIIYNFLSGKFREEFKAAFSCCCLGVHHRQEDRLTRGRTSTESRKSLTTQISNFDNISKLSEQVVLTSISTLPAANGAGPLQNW
Protocol: T-Rex CHO cells stably overexpressing the human orexin-2 receptor (OX2R) were induced overnight with 1 μg/mL of doxycycline in a T225 flask. 24 hours post induction, cells were lifted with accutase and plated into a 384-well proxy plate at 30,000 cells/well. Cells were then treated with different test compounds in 1× stimulation buffer containing 10 mM Hepes, 1 mM CaCl2), 0.5 mM MgCl2, 4.2 mM KCl, 146 mM NaCl, 5.5 mM glucose, and 50 mM LiCl, pH 7.4, for 1 hr at 37 degrees C. Following incubation, the reaction was terminated by the addition of detection mix, which is composed of IP1-d2 and anti-IP1-cryptate diluted in lysis buffer as well as 1× stimulation buffer. The plates were allowed to incubate for 1 hour at room temperature and were then read in the EnVision® multimode plate reader, measuring inositol phosphate levels.
Cisbio IP1 is a cell-based functional assay quantifying the accumulation of inositol monophosphate (IP), a metabolite released as a result of orexin 2 receptor activation through the phospholipase C-Gq signaling pathway. This is a competitive immunoassay in which the IP1 produced by the cells upon receptor activation competes with the IP1 analog coupled to the d2 fluorophore (acceptor) for binding to an anti-IP1 monoclonal antibody labeled with Eu cryptate (donor). The measured HTRF-FRET based signal is inversely proportional to the IP1 concentration produced.
The EC50 values reported in Table 2 were obtained according to the human OX2R IP1 assay described above. Data are the mean EC50 values S.E.M. Reference Compound A is methyl (2R,3S)-3-((methylsulfonyl)amino)-2-(((cis-4-phenylcyclohexyl)oxy)methyl)-piperidine-1-carboxylate (Example 5 of PCT publication No. WO2017/135306). Reference Compound B is N-((2S,3S)-1-(2-hydroxy-2-methylpropanoyl)-2-((2,3′,5′-trifluorobiphenyl-3-yl)methyl)pyrrolidin-3-yl)methanesulfonamide (Example 483 of PCT publication No. WO2019/027058).

[2] = Hepatocytes stability assay (human hepatocytes); assay type: in vitro ADME; conditions: both sexes, human, cryopreserved hepatocytes, cryopreserved human hepatocytes (pool of 50 mixed gender); 1 μM test compound; 1×10^6 cell/mL; 37 degrees C; read-out: CLint (μL/min/million cells)
Summary of the method: (§1)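 Compound at 1 μM (0.1% DMSO) was incubated with cryopreserved pooled human hepatocytes, 1×10^6 cells/mL in Krebs-Henseleit buffer, at 37 °C, sampled up to 240 min. Parent depletion by LC-MS/MS; half-life from first-order decay gave CLint, scaled to hepatic clearance by well-stirred model (fu assumed 1) and extraction ratio.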

human hepatocytes = assay: Hepatocytes stability assay (human hepatocytes); assay type: in vitro ADME; conditions: human hepatocytes; scaled hepatic clearance divided by liver blood flow (well-stirred model, fu assumed unity)
Summary of the method: as §1

Sprague-Dawley rats = assay: Assessment of wake promotion in Sprague-Dawley rats (EEG/EMG); assay type: in vivo, rat; conditions: male Sprague-Dawley rats; PO; 3 mpk; dosed at ZT5; 6-hour post-dose period
Protocol: Wake promotion was assessed using electroencephalography (EEG) and electromyography (EMG) in adult male Sprague-Dawley rats. All rats (Charles River Laboratories, Raleigh, NC, USA) were intraperitoneally implanted with telemetry devices (F50-EEE, Data Sciences International Inc., MN, USA) under isoflurane anesthesia. For EEG, stainless steel screws were implanted over frontal cortex and parietal cortex, and reference screws were placed over cerebellum. Additionally, an electrode was placed in neck muscle for EMG. Rats were given carprofen post-surgery and underwent a 7 to 10-day recovery period. Rats habituated to the experimental room for 7 days and were maintained on a 12-hour light-dark cycle.
EEG and EMG data were recorded using the DSI telemetry system and Ponemah software (Data Sciences International Inc., MN, USA). Sleep-wake stages were scored both manually and with Somnivore, a supervised machine learning software platform, in 10 second epochs. Records were visually inspected as needed post-processing.
All test compounds were dissolved in 5% DMSO and suspended in 95% saline with 0.5% methylcellulose and 0.5% tween. […] Unless otherwise indicated, all compounds were dosed orally. Recordings for each rat were initiated immediately after dosing and lasted for 6 hours post-dose.
Two key endpoints include wakefulness time and cortical activation time. Wakefulness time is derived from the sleep-wake stage analysis. Cortical activation time is based on the duration in which frontal gamma oscillatory activity (30-100 Hz), a key feature of wakefulness, was elevated relative to a pre-treatment baseline. Mean cortical activation time was computed relative to vehicle treatment for the 6-hour post-dose period.

Compound | efflux ratio at 2 h, 3 μM (MDR1) | Papp A→B at 2 h, 3 μM (MDR1) [×10⁻⁶ cm/s] | pEC50 [1] | hepatocyte CLint at 1 μM [2] [µL/min/1e6 cells] | Extraction Ratio (ER) (human hepatocytes) | Mean cortical activation time (% vehicle treatment) (Sprague-Dawley rats)
C[C@@H]1CCN2C(=O)COc3ccccc3[C@H]3CC[C@H](CC3)OCC2[C@H]1NS(C)(=O)=O (mixture of isomers) [Compound 36] | > 100 | 0.3 | > 8.00 | 17 | 0.71 | 
O=C1COc2ccccc2C2CCC(CC2)OC[C@H]2[C@@H](NS(=O)(=O)C3CC3)CCCN12 (stereo in doubt) [Compound 1] | 6.7 | 1.6 |  | 31 | 0.82 | 160.00
Cc1cccc2c1C1CCC(CC1)OC[C@H]1[C@@H](NS(C)(=O)=O)CCCN1C(=O)CO2 (stereo in doubt) [Compound 2] | 46 | 0.69 |  | 28 | 0.80 | 182.50
CC[C@H](C)S(=O)(=O)N[C@H]1CCCN2C(=O)COc3ccccc3C3CCC(CC3)OC[C@@H]12 (stereo in doubt) [Compound 21] | 52 | 0.8 | > 8.00 | 36 | 0.84 | 
O=C1COc2ccccc2[C@H]2CC[C@H](CC2)OCC2[C@@H](NS(=O)(=O)C3CCOC3)CCCN12 (stereo in doubt) [Compound 22] | > 100 | 0.18 | > 8.00 | 13 | 0.66 | 
C[C@H](C(F)(F)F)S(=O)(=O)N[C@H]1CCCN2C(=O)COc3ccccc3C3CCC(CC3)OC[C@@H]12 (stereo in doubt) [Compound 23] | 87 | 0.44 | > 8.00 | 30 | 0.82 | 
C[C@@H](C(F)(F)F)S(=O)(=O)N[C@H]1CCCN2C(=O)COc3ccccc3C3CCC(CC3)OC[C@@H]12 (stereo in doubt) [Compound 24] | 43 | 0.65 | > 8.00 | 28 | 0.81 | 
CC[C@@H](C)S(=O)(=O)N[C@H]1CCCN2C(=O)COc3ccccc3C3CCC(CC3)OC[C@@H]12 (stereo in doubt) [Compound 25] | 27 | 0.62 | > 8.00 | 35 | 0.84 | 
O=C1COc2ccccc2[C@H]2CC[C@H](CC2)OCC2[C@@H](NS(=O)(=O)CF)CCCN12 (stereo in doubt) [Compound 38] | 35 | 1.32 | > 8.00 | 18 | 0.73 | 
CS(=O)(=O)N[C@H]1CCCN2C(=O)COc3ccccc3[C@H]3CC[C@@H](OCC12)[C@H](O)C3 (stereo in doubt) [Compound 45] | > 5.3 | < 0.14 | 6.00 to 8.00 | < 1.9 | <0.22 | 
CS(=O)(=O)N[C@H]1CCCN2C(=O)[C@@H](CO)Oc3ccccc3[C@H]3CC[C@H](CC3)OCC12 (stereo in doubt) [Compound 60] | > 100 | 0.041 | > 8.00 | 3.7 | 0.36 | 
CS(=O)(=O)N[C@H]1CCCN2C(=O)[C@H](CO)Oc3ccccc3[C@H]3CC[C@H](CC3)OCC12 (stereo in doubt) [Compound 61] | > 100 | < 0.034 | > 8.00 | 6.9 | 0.51 | 
CC[C@@H]1Oc2ccccc2[C@H]2CC[C@H](CC2)OCC2[C@@H](NS(C)(=O)=O)CCCN2C1=O (stereo in doubt) [Compound 84] | 100 | 0.43 | > 8.00 | 31 | 0.82 | 
CC[C@H]1Oc2ccccc2[C@H]2CC[C@H](CC2)OCC2[C@@H](NS(C)(=O)=O)CCCN2C1=O (stereo in doubt) [Compound 85] | 97 | 0.45 | > 8.00 | 37 | 0.84 | 
Cc1ccnc2c1[C@H]1CC[C@H](CC1)OCC1[C@@H](NS(=O)(=O)C3CCOC3)CCCN1C(=O)CO2 (stereo in doubt) [Compound 89] | 49 | 0.56 | > 8.00 | 12 | 0.64 | 
C[C@@H]1C[C@H](NS(C)(=O)=O)[C@@H]2CO[C@H]3CC[C@H](CC3)c3ccccc3OCC(=O)N12 [Compound 103] | 28 | 1.4 | 6.00 to 8.00 | 41 | 0.86 | 
